Assay results from patent publication US11850266B2, “Cardiomyocytes and compositions and methods for producing the same” (President and Fellows of Harvard College, priority 2019, dated 2023).

Key:
[1] = tested on: iPSC-derived cardiomyocytes; assay: Muscular thin film (MTF) contractile force; assay type: cell-based, human; conditions: Torin1 200 nM 7 days, MTFs, FIG. 2F
Procedure: Gelatin muscular thin films (MTFs) were prepared as previously described (32). Square 22×22 mm glass coverslips were covered with low adhesive tape (Patco 5560 Removable Protective Film Tape), and an Epilog Mini 24 laser engraving instrument was used to cut the tape such that two inner rectangles (3×10 mm for cantilever region and 7×10 mm for base region) were surrounded by an outer border. The larger inner rectangle was peeled away and this region was activated with 0.1 M NaOH for 5 minutes, then 0.5% (3-aminopropyl)triethoxysilane (APTES) in 95% ethanol for 5 minutes, then 0.5% glutaraldehyde solution for 30 minutes. The glass coverslips were then rinsed and dried. Next, the tape covering the smaller inner rectangle region was peeled away. A 20% w/v stock gelatin (175 g bloom, Type A, Sigma) in distilled water solution was dissolved at 65° C. for 30 minutes and an 8% w/v stock microbial transglutaminase (MTG) (Ajinomoto) in distilled water solution was dissolved at 37° C. for 30 minutes. […] The radius of curvature for each MTF was quantified using ImageJ. Thickness of the MTF was determined using a Zeiss LSM confocal microscope. […] The maximum and average systolic, diastolic, and twitch (systolic—diastolic stress) stresses were calculated for each MTF.

[2] = tested on: iPSC-derived cardiomyocytes; assay: qPCR mRNA expression in iPSC-derived cardiomyocytes; assay type: cell-based, human
Procedure: To prepare for differentiation, iPSCs were plated at a density between 20,000 to 80,000 cells (depending on the cell line) per well of a 12-well plate at four days prior to onset of differentiation. Cells were differentiated according to the protocol previously described by Lian et al. with some modifications (FIG. 1A) (1). Basal media was changed from StemFlex to RPMI/B27 on day 0 of differentiation. The GSK3 inhibitor, CHIR99021 (6 μM), was added for 48 hours from day 0 to day 2 of differentiation when cells were approximately 70-80% confluent. The Wnt antagonist IWP4 (5 μM) was added from days 2 to 4 of differentiation. Insulin (10 μg/ml) was added to the media starting on day 7 of differentiation, and media was changed every 2-3 days. In general, higher purity (TNNT2+) cardiomyocytes were observed when beating initiated prior to day 10 of differentiation, therefore only batches with onset of beating between days 7-10 of differentiation were included in this study. Beating cardiomyocytes were treated with Torin1 (200 nM, unless otherwise noted) or vehicle (0.02% dimethylsulfoxide (DMSO)) beginning at ˜2 days after onset of beating for 7 days (media changed with fresh Torin1 or DMSO every 2-3 days), unless otherwise noted. After Torin1 treatment, media was switched back to RPMI/B27/insulin and maintained with media change every 2-3 days until endpoint assay. In a few assays, fatty acids were added in the form of chemically defined lipids (Gibco) diluted 1:1000 simultaneous with Torin1 treatment. In some other assays, fetal bovine serum (10% FBS) was added to cells after completion of Torin treatment for 2-4 days.
RNA was extracted from cells using RiboZol (VWR) followed by the E.Z.N.A. Total RNA I kit (Omega) then reverse transcribed to cDNA with the High Capacity cDNA Reverse Transcription kit (Thermo Fisher Scientific) according to the manufacturer's instructions. Quantitative PCR (qPCR) was performed using the iTaq Universal SYBR Green Supermix (Bio-Rad) and the primer pairs listed in Table 1 with a Bio-Rad CFX384 Real-Time thermal cycler. TATA-binding protein (TBP) was used as the housekeeping gene.

[3] = Torin1 10-200 nM, 7 days, BJRiPS-CMs, FIG. 1E

Compound: CCC(=O)N1CCN(c2ccc(-n3c(=O)ccc4cnc5ccc(-c6cnc7ccccc7c6)cc5c43)cc2C(F)(F)F)CC1 [Torin1]
- relative maximum systolic force versus control [1]: ~2 fold
- mRNA expression of TNNI3, CACNA1c and SERCA2a ([2]; 200 nM Torin1 about two days after onset of beating, BJRiPS, FIGS. 18B-18D): robust increase in mRNA expression
- fatty acid transport protein 6 (FATP6) mRNA ([2]; FIG. 3F): increase in mRNA expression
- HCN4 mRNA ([2]; FIG. 4A): non-significant trend of increased HCN4
- selected mitochondrial genes (qPCR) or proteins (western) ([2]; FIGS. 13A-13B): Significant changes in selected mitochondrial genes (FIG. 13A) or proteins (FIG. 13B) were not observed
- E2F4 mRNA ([2]; Torin1 200 nM from day 9, BJRiPS, FIG. 25B): increased mRNA expression of the inhibitory E2F member, E2F4
- RBL2 (p130) mRNA ([2]; Torin1 200 nM from day 9, FIG. 25C): increased mRNA expression of RBL2
- MDM2 mRNA ([2]; Torin1 200 nM from day 9, FIG. 25D): decreased mRNA expression of the E2 ubiquitin-protein ligase, MDM2
- MYH6, MYH7, TNNT2 mRNA ([2]; Torin1 10, 50, 200 nM, 7 days, BJRiPS-CMs, FIG. 2A): trended toward increased expression
- PPARGC1a mRNA expression ([2]; Torin1 10, 50, 200 nM, 7 days, FIG. 3F): dose-dependent increase
- cyclin C1 and E2F1 proliferative markers (qPCR) [2, 3]: significant decrease
- expression of quiescence markers including p16 and p130 (qPCR) [2, 3]: non-significant trends toward increased expression
- KCNJ2, CACNA1c, RYR2, ATP2A2 (SERCA2A), SCN5A mRNA ([2]; Torin1 10 or 200 nM, 7 days, FIG. 4A): significant dose-dependent increase
- mRNA expression of p21 ([2]; discussion of Example 1): significantly decreased mRNA expression
- TNNI3 mRNA expression ([2]; dose-dependent, Torin1 10, 50, 200 nM, 7 days, FIG. 2A): significantly increased
- E2F1 mRNA ([2]; immediately after Torin1 treatment, transient increase at ~5 days, FIG. 25A): trend toward decreased mRNA expression of the stimulatory E2F member, E2F1
- TNNI3 expression by time of Torin1 initiation (qPCR) ([2]; initiation about 2 days after onset of beating, BJRiPS, FIG. 20A): trend toward higher TNNI3 expression
- CDKN1a (p21) mRNA ([2]; trend, Torin1 200 nM from day 9, FIG. 25E): decreased mRNA expression of the cyclin inhibitor CDKN1a (p21)
- CDK2 mRNA ([2]; trend, Torin1 200 nM from day 9, FIG. 25F): increased mRNA expression of the cyclin-dependent kinase, CDK2
